Columns and labels:
[1] = tested on: mice with the gene mutation for Huntington's disease; details: mouse, in vivo; cited from earlier work
[2] = tested on: leukocyte cystine; assay: Leukocyte cystine levels after intraluminal delivery of cysteamine in patients with cystinosis; assay type: in vivo, human
Excerpt: (§1) Immediately proximal to the balloon was an infusion port (1 mm diameter) through which the drug was delivered. […] On day 1 of the study, the nasoenteric tube was inserted into the stomach. By day 3 of the study the tube had passed into the proximal small intestine (SI) just distal to the ligament of Treitz (confirmed fluoroscopically). The balloon was then inflated, and peristalsis propelled the tube distally. Tube position within the cecum was confirmed fluoroscopically on day 5 (day 7 in 4 patients because of slow transit). If the tube had migrated too far, it was retracted into the desired location.
(§2) After an overnight fast (except for water) blood samples were taken at baseline and at varying intervals after intraluminal delivery of cysteamine. […] Gastrin was measured in picograms/mL with the Diagnostic Products Corporation (Los Angeles, Calif.) gastrin radioimmunoassay-assay kit. Leukocyte cystine levels were measured in nmol half-cystine per mg protein by the Cystine Determination Lab (La Jolla, Calif.).
AOC is computationally analogous to area under the curve, but it is applied when values are predominantly decreasing below baseline values. Large AOC values reflect large decreases, and a negative AOC reflects a net increase in value. Main effects for site of delivery, time after delivery, and the interaction between site and time were tested, except just the site effect was tested for AOCs. In the absence of significant interaction when a main effect was detected, Tukey's honestly significant difference test (HSD) was applied to identify where differences occurred within a 5% family wise error rate. The Tukey HSD procedure controls for overall significance level when performing all pairwise comparisons.

[3] = Symptoms after intraluminal cysteamine delivery; assay type: in vivo, human; details: cystinosis subject
Excerpt: as §1
Only 2 patients (1 male, 1 female) with cystinosis reported regular GI symptoms before the study, and these had responded to acid-suppression therapy. […] No other symptoms were reported after any other cysteamine delivery in the children with cystinosis. There were no associated adverse events with tube placement or removal.

[4] = Plasma cysteamine after delivery of cysteamine through a nasoenteric tube into stomach, small intestine or cecum; assay type: in vivo; details: human, 10 mg/kg/dose of base, Mean plasma cysteamine Cmax
Procedure: Adult control patients were recruited locally. […] None of the patients had undergone kidney transplantation. Baseline chemistry, Helicobacter pylori serologic study, complete blood count, and urinalysis were performed.
as §1, §2
Differences between means for the 3 sites were tested, plus group and group x site interaction effects for the combined groups. If a site effect was detected, Tukey's HSD was applied to determine which sites differed from each other.

[5] = tested on: leukocyte cystine; details: cited from earlier work
[6] = tested on: gastrin; assay: Serum gastrin after intraluminal delivery of cysteamine (radioimmunoassay); assay type: in vivo, human
Excerpt: as §1, §2
REML repeated measures analyses of variance were also performed as described above on gastrin levels. […] A 5% significance level was used without adjustment for all statistical testing.

[7] = children with cystinosis; cited from earlier work

NCCSSCCN [Cystamine, cystamine]
Effect in mice with the gene mutation for Huntington's disease [1]: alleviate tremors and prolong life

NCCS [cysteamine]
Time leukocyte cystine levels remained at the 1-hour level ([2]; after delivery, at 48 hours not returned to pre-cysteamine level): 24 h
Time leukocyte cystine levels remained below pre-delivery levels ([2]; single dose of cysteamine into the small intestine (FIG. 3)): up to 12 hours
Decrease in leukocyte cystine after cysteamine delivery ([2]; within an hour of delivery): dramatic decrease in leukocyte cystine
Symptoms after infusion into the proximal small intestine [3]: did not have any symptoms
Symptoms after intragastric cysteamine ([3]; about 15 minutes after delivery): severe retching and emesis
Cmax ([4]; other: infused through nasoenteric tube into cecum, combined cystinosis and control subjects, delivery into cecum): 22.5 µM
Cmax ([4]; other: infused through nasoenteric tube into cecum, control subjects, delivery into cecum): 23.1 µM
Cmax ([4]; other: infused through nasoenteric tube into cecum, cystinosis subjects, delivery into cecum): 21.9 µM
Cmax ([4]; other: infused through nasoenteric tube into small intestine, combined cystinosis and control subjects, delivery into small intestine): 53.2 µM
Cmax ([4]; other: infused through nasoenteric tube into small intestine, control subjects, delivery into small intestine): 51.1 µM
Cmax ([4]; other: infused through nasoenteric tube into small intestine, cystinosis subjects, delivery into small intestine): 55.8 µM
Cmax ([4]; other: infused through nasoenteric tube into stomach, combined cystinosis and control subjects, delivery into stomach): 37.8 µM
Cmax ([4]; other: infused through nasoenteric tube into stomach, control subjects, delivery into stomach): 39.5 µM
Cmax ([4]; other: infused through nasoenteric tube into stomach, cystinosis subjects, delivery into stomach): 35.5 µM
Period of activity ([5]; oral Cystagon capsules): 5 to 6 h
Time leukocyte cystine level remained suppressed ([5]; single dose administered intravenously): more than 24 hours
Depletion of intracellular cystine ([5]; taken regularly, measured in circulating white blood cells): up to 90%
Gastrin level after gastric cysteamine ([6]; 1 child with severe GI symptoms, 30 minutes after gastric delivery, baseline 70 pg/mL): 121 pg/mL
Gastrin levels, baseline and post-cysteamine (undetectable) ([6]; control group, more than half of the levels, any delivery site): < 25 pg/mL

COc1ccc2c(c1)c(CC(=O)O)c(C)n2C(=O)c1ccc(Cl)cc1 [indomethacin]
Reduction of urine volume and liquid consumption [7]: about 30%

Source: US9750708B2 (The Regents of the University of California, priority 2006, dated 2017)
